This is an account of results in patent publication EP0330824A1, “Use of quinolizine and quinolizinone derivatives in the manufacture of medicaments for the treatment of cardiac arrhythmias” (MERRELL DOW PHARMACEUTICALS INC., priority 1988, dated 1989).

Structures can show the parent of a compound that is named as a salt.

The test system of test [1] is Von Bezold-Jarisch Reflex induced by 5-HT. Put plainly: Von Bezold-Jarisch Reflex induced by intravenous 5-HT. The test is classed as in vivo. Conditions: rat. From the text: The activity of these compounds against 5-HT can be assessed in vivo by measurement of the effect of the compound on the Von Bezold-Jarisch Reflex induced by 5-HT injected intravenously into the rat (see Paintal A.S., Physiol. Rev. 53, 159-227, 1973; J.R. Fozard, Naunyn-Schmiedeberg's Arch. Pharmacol., 326, 1984, 36-44). The transient cardiac slowing arises from an increased afferent vagus activity arising from stimulation by 5-HT of sensory afferent fibers in and around the heart.

In test [2] the test system is action potential of isolated cardiac tissue. Briefly: Action potential of isolated cardiac tissue (Purkinje fiber or papillary muscle). More on the design: species or system dog or guinea pig. Conditions: 10⁻⁸ to 10⁻⁵ moles/liter in tissue bath, stimulation at 1 Hz. The text has this: A gas mixture comprised of 95% O₂ and 5% CO₂ is bubbled through the solution while it is maintained within a pH range of from 7.3-7.4.
The heart of an anesthetized mongrel dog is surgically removed and the Purkinje fibers are dissected from either of the ventricles. Alternately, papillary muscles are removed from the right cardiac ventricle of a guinea pig. A Purkinje fiber or a papillary muscle is then placed in a tissue bath which is continuously perfused with modified Tyrode's solution.¹
The electrophysiology of the cardiac tissue is monitored by conventional glass microelectrodes. One microelectrode is inserted into a cell in the cardiac muscle fiber and a ground electrode is positioned in the tissue bath. A conventional oscilloscope is utilized to visualize the action potential waveforms of the cardiac cell. […]
At this point, representative control action potentials are recorded and analyzed by a computer.
After establishing a control action potential, the test compound is introduced into the Modified Tyrode's solution in a quantity such that the test compound is present within the tissue bath in a range of from 10⁻⁸ to 10⁻⁵ moles/liter. After the effect of the test compound has reached a steady state, the action potential is again recorded and analyzed in the manner described above.

Take `O=C(OC1CC2CC3CC(C1)N2CC3=O)c1c[nH]c2ccccc12` (stereo not drawn) [endo-hexahydro-8-(3-indolylcarbonyloxy)-2,6-methano-2H-quinolizin-3(4H)-one hydrochloride]: the “suppression of the Von Bezold-Jarisch Reflex response” value in test [1] (0.01-0.1 mg/kg given intravenously) and in test [1] (0.25-1 mg/kg given orally) was “suppressed the response dose-dependently” in each case.

With `O=C(OC1CC2CC3CC(C1)N2CC3=O)c1c[nH]c2ccccc12` (stereo not drawn) [endo-hexahydro-8-(3-indolylcarbonyloxy)-2,6-methano-2H-quinolizin-3(4H)-one], the “rate of maximal depolarization of the action potential” value in test [2] is on record as “capable of delaying the rate of maximal depolarization of the action potential”.
